Reference: US4801712A, “2-Alkyl(or phenyl)thio-6-n-alkylergolines are dopamine D-1 antagonists without D-2 agonist activity” (Eli Lilly and Company, priority 1987, dated 1989)
Counter-ions that a name gives are not always drawn.

Columns and labels:
[1] = system: prolactin; details: found by Clemens, Semonsky, Meites and co-workers; cited from earlier work
[2] = molecular target: T1, dopamine D-1 receptors (Rattus norvegicus, UniProt P18901); experiment: Retinal Adenylate Cyclase Assay (dopamine D-1 antagonist assay); assay type: biochemical, rat (adult male, Sprague-Dawley); details: 10 μM dopamine, rat retina homogenate; for inhibition at 0.1 µM: 0.1 μM drug; for inhibition at 1 µM: 1.0 μM drug; for inhibition at 3 µM: 3.0 μM drug; for inhibition at 10 µM: 10.0 μM drug; for inhibition at 100 µM: 100.0 μM drug
T1 construct: Retinal tissue was removed from the eyeball and homogenized; from tissue; host or cells: rat retina homogenate (adult male Sprague-Dawley)
T1 sequence (P18901 whole entry): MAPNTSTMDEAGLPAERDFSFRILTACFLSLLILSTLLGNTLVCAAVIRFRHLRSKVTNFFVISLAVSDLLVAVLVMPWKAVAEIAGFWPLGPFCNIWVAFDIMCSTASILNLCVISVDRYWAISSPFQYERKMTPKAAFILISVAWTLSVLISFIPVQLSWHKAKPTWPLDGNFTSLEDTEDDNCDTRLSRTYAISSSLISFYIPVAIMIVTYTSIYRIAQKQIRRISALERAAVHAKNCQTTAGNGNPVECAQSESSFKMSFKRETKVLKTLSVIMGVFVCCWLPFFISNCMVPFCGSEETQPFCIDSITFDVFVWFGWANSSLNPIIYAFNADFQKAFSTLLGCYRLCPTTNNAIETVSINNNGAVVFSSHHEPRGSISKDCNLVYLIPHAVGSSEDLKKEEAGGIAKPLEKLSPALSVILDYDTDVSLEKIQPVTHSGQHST
Protocol: The compounds of this invention are dopamine D-1 antagonists without D-2 agonist activity; i.e., they counter the effects of dopamine at D-1 receptors in the brain. The dopamine D-1 antagonist assay was carried out as follows.
Retinal Adenylate Cyclase Assay
Adult male, Sprague-Dawley rats purchased from Charles River Breeding Laboratories (North Wilmington, Mass.) were used in these studies. The rats were decapitated and the eyeballs were removed. The eyeballs were bisected at the juncture of the sclera and iris using capsulotomy scissors. The retina was dissociated from the choroid by irrigation with saline. Retinal tissue was removed from the eyeball and homogenized with Tris-2 mM EGTA (pH 7.4; 1:150 wt.:vol.) using a teflon-glass Dounce homogenizer at a speed of 50 rpm.
The adenylate cyclase assay was performed at an incubation temperature of 30° C. and over a 20-minute reaction period. The reaction mixture contained the following constant ingredients: 2 mM MgSO4, 0.5 mM EGTA, 1 mM IBMX, 0.01 mM GTP, 80 mM Tris-HCl, pH 7.4, 0.5 mM ATP with 3-5×10^6 cpm ^32 P-ATP and 20-25 μg retinal homogenate protein. The reaction mixture also contained various concentrations of the compound tested alone or in the presence of 10 μM dopamine. The reaction was started by the addition of ATP/^32 P-ATP and was stopped by the addition of a solution containing 1% SDS, 20 mM ATP, 0.7 mM cyclic AMP, 80 mM Tris-HCl pH 7.4 and 10^4 cpm ^3 H-cyclic AMP in a total volume of 200 μl. This mixture was heated for 2 minutes at 90° C. to further insure reaction termination. The ^32 P cyclic AMP formed during the reaction was isolated from each sample using the chromatographic method of Solomon (1979). The ^3 H-cyclic AMP was also simultaneously isolated with this procedure. The net ^32 P-cyclic AMP formed was calculated by correcting the final ^32 P cpm for column recovery efficiency delermined by the ^3 H recovery and for background radioactivity determined by the radioactivity in incubates without homogenate. Homogenate protein determinations were made using the BioRad protein assay with bovine serum albumin used at the reference protein. Dopaminergic agonist activity was evaluated based upon percent stimulation over activity without drug. Dopaminergic antagonist activity was estimated based upon the percent inhibition of the response to 10 μM dopamine.
In the Table, column 1 gives the name of the compound, column 2, the concentration of drug in the medium, and column 3, the percent inhibition of 10 μM dopamine.

[3] = system: prolactin secretion (D-2); experiment: Inhibition of prolactin secretion in nonreserpinized rats (test for D-2 dopamine agonist activity); assay type: in vivo, rat (adult male, Sprague-Dawley); details: 1 hour after treatment, rat serum
Protocol: The drugs of this invention, represented by formulas II and III, are shown to lack D-2 dopamine agonist activity at D-1 antagonist dose levels in a test to determine their ability (or inability) to inhibit the secretion of prolactin in nonrespernized rats. This test was carried out as follows.
Adult male rats of the Sprague-Dawley strain weighing about 200 g. were housed in an air-conditioned room with controlled lighting (14 hours light-10 hours dark) and fed lab chow and water ad libitum. The compound was dissolved in 10 percent ethanol, and injected intraperitoneally at a dose of 1 or 2 mg/kg. The compound was administered to a group of 10 rats, and a control group of 10 intact males received an equivalent amount of 10 percent ethanol. One hour after treatment, all rats were killed by decapitation, and 150 μl aliquots of serum were assayed for prolactin.
The difference between the mean prolactin level of the treated rats and mean prolactin level of the control rats, divided by the mean prolactin level of the control rats, gives the percent change in prolactin secretion attributable to the given dose.

For `CC(C)[C@H]1C(=O)N2CCC[C@H]2[C@]2(O)O[C@](NC(=O)[C@@H]3C=C4c5cccc6[nH]cc(c56)C[C@H]4N(C)C3)(C(C)C)C(=O)N12` [Ergocornine], the “activity as prolactin inhibitors” value [1] is given as “activity as prolactin inhibitors”.
Compound `CSC[C@@H]1C[C@@H]2c3cccc4[nH]c(SC)c(c34)C[C@H]2N(C)C1` [D-2-methylthio-6-methyl-8β-methylthiomethylergoline] has an inhibition at 0.1 µM [2] of -5%, an inhibition at 1 µM [2] of 26.4 ± 6% and an inhibition at 3 µM [2] of 49 ± 0.8%. For the same compound, the inhibition at 10 µM [2] was 72.5 ± 4.8%, the inhibition at 30 µM ([2]; 30.0 μM drug) was 73.8 ± 4.2% and the inhibition at 100 µM [2] was 76.6 ± 7.7%. For the same compound, the “Percent changes in prolactin (stimulation)” value ([3]; 2 mg/kg i.p., * statistically significant at p < 0.05) was 54%.
For `CN1CC(CC#N)C[C@@H]2c3cccc4[nH]cc(c34)C[C@H]21` (stereo partly drawn) [D-6-methyl-8-cyanomethylergoline], the “activity as prolactin inhibitors” value [1] is listed as “activity as prolactin inhibitors”.
Work on `CSc1[nH]c2cccc3c2c1CC(N(C)C)C3` (racemic) [(±)-2-methylthio-4-dimethyamino-1,3,4,5-tetrahydrobenz[c,d]indole maleate] yielded an inhibition at 0.1 µM [2] of -5.3%, an inhibition at 0.3 µM ([2]; 0.3 μM drug) of -2.2 ± 3.8% and an inhibition at 1 µM [2] of 0.9 ± 1.5%. For the same compound, the inhibition at 3 µM [2] was 19.1 ± 6.4%, the inhibition at 10 µM [2] was 34.7 ± 13% and the inhibition at 100 µM [2] was 84 ± 3.3%. The inhibition at 1 mg/kg ([3]; ip, 1 mg/kg i.p., not marked as statistically significant, read-out: Percent changes in prolactin (inhibition)) was 9%.
`CSc1[nH]c2cccc3c2c1C[C@@H]1[C@@H]3CC(CC#N)CN1C` (stereo partly drawn) [D-2-methylthio-6-methyl-8-cyanomethylergoline] gave an inhibition at 2 mg/kg ([3]; ip, 2 mg/kg i.p., * statistically significant at p < 0.05, read-out: Percent changes in prolactin (inhibition)) of 68%.
In the case of `CC(C)C[C@H]1C(=O)N2CCC[C@H]2[C@]2(O)O[C@](NC(=O)[C@@H]3C=C4c5cccc6[nH]c(Br)c(c56)C[C@H]4N(C)C3)(C(C)C)C(=O)N12` [2-bromo α-ergokryptine], the “activity as prolactin inhibitors” value [1] is given as “activity as prolactin inhibitors”.
For `CC(C)[C@H]1C(=O)N2CCC[C@H]2[C@]2(O)O[C@](NC(=O)[C@@H]3C[C@@H]4c5cccc6[nH]cc(c56)C[C@H]4N(C)C3)(C(C)C)C(=O)N12` [dihydroergocornine], the “activity as prolactin inhibitors” value [1] is listed as “activity as prolactin inhibitors”.
